Assay results published in patent US12616201B2, “Herbicidal compositions comprising isoxaflutole” (BASF SE, priority 2024, dated 2026).

Experiments:
[1] = system: Datura stramonium; test: Post-emergence application in field trials, DATST; format: in vivo; settings: Table 4.2; DATST growth stage 14-16, height 5-10 cm; 42 DAT; 12.5 g ai/ha
Method: (§1) In the examples below, using the method of S. R. Colby (1967) “Calculating synergistic and antagonistic responses of herbicide combinations”, Weeds 15, p. 22ff., the value E, which is expected if the activity of the individual active compounds is only additive, was calculated:
(§2) [formula] • where • X=percent activity using active herbicide A at an application rate a; • Y=percent activity using active herbicide B (i.e. isoxaflutole) at an application rate b; • E=expected activity (in %) by A+B at application rates a+b.
(§3) If the value found experimentally is higher than the value E calculated according to Colby, a synergistic effect is present.
(§4) On field test sites, natural weed infestation or seeded weeds were treated post-emergence of the weeds.
(§5) In the field trials, the weeds were treated as indicated below.
(§6) In the following experiments, the herbicidal activity for the individual herbicidal compositions (solo and mixture applications) was assessed at the indicated days after treatment (DAT). The assessments for the damage on undesired weeds caused by the composition was carried out using a scale from 0 to 100%, compared to the untreated control plants. Here, 0 means no damage and 100 means complete destruction of the plants.
(§7) Herbicide A-1 and isoxaflutole (240 g/l SC) were, together with addition of 0.25 v/v % MSO (methylated sed oil) as adjuvant, formulated in water as distribution medium (water volume 200 l/ha) and sprayed with commercial flat fan nozzles.
(§8) Herbicide A-1, isoxaflutole (240 g/l SC) and saflufenacil (342 g/l) were, together with addition of 0.25 v/v % MSO (methylated sed oil) as adjuvant, formulated in water as distribution medium (water volume 200 l/ha) and sprayed with commercial flat fan nozzles.

[2] = system: Echinochloa crus-galli; test: Post-emergence application in field trials, ECHCG; format: in vivo
Method: as §1, §2, §3, §4, §5, §6, §7
(§9) Herbicide A-1 and isoxaflutole (240 g/l SC, Balance Flexx®) were, together with addition of 0.25 v/v % MSO (methylated sed oil) as adjuvant, formulated in water as distribution medium (water volume 200 l/ha) and sprayed with commercial flat fan nozzles.
as §8
(§10) Herbicide A-1, isoxaflutole (240 g/l SC), saflufenacil (342 g/l) and pyroxasulfone were, together with addition of 0.25 v/v % MSO (methylated sed oil) as adjuvant, formulated in water as distribution medium (water volume 200 l/ha) and sprayed with commercial flat fan nozzles.

[3] = system: Lolium multiflorum; test: Post-emergence application in field trials, LOLMU; format: in vivo
Method: as §1, §2, §3, §4, §5, §6, §10

[4] = system: Zea mays; test: Post-emergence application in field trials, ZEAMX; format: in vivo
Method: as §1, §2, §3, §4, §5, §6, §7, §9, §8, §10

[5] = system: HORVW; test: Post-emergence application in field trials, HORVW; format: in vivo, Hordeum vulgare
Method: as §1, §2, §3, §4, §5, §6, §10

[6] = system: Amaranthus retroflexus; test: Post-emergence application in field trials, AMARE; format: in vivo; settings: 7 DAT
Method: as §1, §2, §3, §4, §5, §6, §9, §10

[7] = system: Chenopodium album; test: Post-emergence application in field trials, CHEAL; format: in vivo; settings: Table 5.22; 7 DAT; height 10-25 cm; C-19 70 g ai/ha
Method: as §1, §2, §3, §4, §5
as §6, with “the plants. […]” for “the plants.”

[8] = Table 5.23, 21 DAT, height 20-25 cm, C-19 70 g ai/ha

In the case of `CC(C)N(C)S(=O)(=O)NC(=O)c1cc(-n2c(=O)cc(C(F)(F)F)n(C)c2=O)c(F)cc1Cl` [C-1, saflufenacil], the “% herbicidal activity” value [1] is reported as 40%, the “% herbicidal activity” value ([2]; Table 4.1, ECHCG growth stage 23-30, height 15-20 cm, 7 DAT, 12.5 g ai/ha) is reported as 20% and the “% herbicidal activity” value ([2]; Table 5.11, 7 DAT, height 15-20 cm, C-1 12.5 g ai/ha) is reported as 20%. For the same compound, the “% herbicidal activity” value ([3]; Table 5.1, LOLMU height 20-25 cm, 7 DAT, 12.5 g ai/ha) was 20%, the “% herbicidal activity” value ([3]; Table 5.8, LOLMU height 20-25 cm, 21 DAT, 12.5 g ai/ha) was 20% and the “% herbicidal activity” value ([4]; Table 4.1, ZEAMX growth stage 15-16, height 25-30 cm, 7 DAT, 12.5 g ai/ha) was 0%. For the same compound, the “% herbicidal activity” value ([4]; Table 5.11, 7 DAT, height 25-30 cm, C-1 12.5 g ai/ha) was 8%, the “% herbicidal activity” value ([4]; Table 5.7, ZEAMX height 25-30 cm, 7 DAT, 12.5 g ai/ha) was 8% and the “% herbicidal activity” value ([4]; Table 5.8, ZEAMX height 25-30 cm, 21 DAT, 12.5 g ai/ha) was 2%. The “% herbicidal activity” value ([4]; Table 5.9, ZEAMX height 25-30 cm, 28 DAT, 12.5 g ai/ha) was 0%, the “% herbicidal activity” value ([5]; Table 5.2, HORVW height 20-25 cm, 21 DAT, 12.5 g ai/ha) was 0% and the “% herbicidal activity” value ([5]; Table 5.3, HORVW height 20-25 cm, 28 DAT, 12.5 g ai/ha) was 0%. For the same compound, the “% herbicidal activity” value ([5]; Table 5.8, HORVW height 20-25 cm, 21 DAT, 12.5 g ai/ha) was 0%.

For `Cn1nc(C(F)(F)F)c(CS(=O)(=O)C2=NOC(C)(C)C2)c1OC(F)F` [C-19, pyroxasulfone], the “% herbicidal activity” value ([6]; Table 5.22, height 8-20 cm, C-19 70 g ai/ha) was 10%, the “% herbicidal activity” value ([6]; Table 5.4, AMARE height 8-20 cm, 70 g ai/ha) was 10% and the “% herbicidal activity” value [7] was 10%. For the same compound, the “% herbicidal activity” value ([2]; Table 5.23, 21 DAT, height 15-20 cm, C-19 70 g ai/ha) was 40%, the “% herbicidal activity” value ([2]; Table 5.24, 28 DAT, height 15-20 cm, C-19 70 g ai/ha) was 30% and the “% herbicidal activity” value ([2]; Table 5.4, ECHCG height 15-20 cm, 7 DAT, 70 g ai/ha) was 20%. The “% herbicidal activity” value ([3]; Table 5.1, LOLMU height 20-25 cm, 7 DAT, 70 g ai/ha) was 20%, the “% herbicidal activity” value ([3]; Table 5.22, 7 DAT, height 20-25 cm, C-19 70 g ai/ha) was 20% and the “% herbicidal activity” value [3, 8] was 40%. For the same compound, the “% herbicidal activity” value ([3]; Table 5.4, LOLMU height 20-25 cm, 7 DAT, 70 g ai/ha) was 20%, the “% herbicidal activity” value ([4]; Table 5.10, 7 DAT, height 25-30 cm, C-19 70 g ai/ha) was 5% and the “% herbicidal activity” value ([4]; Table 5.22, 7 DAT, height 25-30 cm, C-19 70 g ai/ha) was 5%. The “% herbicidal activity” value ([4]; Table 5.23, 21 DAT, height 25-30 cm, C-19 70 g ai/ha) was 4%, the “% herbicidal activity” value ([4]; Table 5.24, 28 DAT, height 25-30 cm, C-19 70 g ai/ha) was 0% and the “% herbicidal activity” value ([4]; Table 5.4, ZEAMX height 25-30 cm, 7 DAT, 70 g ai/ha) was 5%. For the same compound, the “% herbicidal activity” value ([4]; Table 5.5, ZEAMX height 25-30 cm, 21 DAT, 70 g ai/ha) was 4%, the “% herbicidal activity” value ([4]; Table 5.6, ZEAMX height 25-30 cm, 28 DAT, 70 g ai/ha) was 0% and the “% herbicidal activity” value ([5]; Table 5.2, HORVW height 20-25 cm, 21 DAT, 70 g ai/ha) was 0%. For the same compound, the “% herbicidal activity” value [5, 8] was 0%, the “% herbicidal activity” value ([5]; Table 5.24, 28 DAT, height 20-25 cm, C-19 70 g ai/ha) was 0% and the “% herbicidal activity” value ([5]; Table 5.3, HORVW height 20-25 cm, 28 DAT, 70 g ai/ha) was 0%. The “% herbicidal activity” value ([5]; Table 5.5, HORVW height 20-25 cm, 21 DAT, 70 g ai/ha) was 0% and the “% herbicidal activity” value ([5]; Table 5.6, HORVW height 20-25 cm, 28 DAT, 70 g ai/ha) was 0%.
